Results reported in the supplement of paper PMC4932681.

Tests used:
Test in all cases: viability inhibition at highest dose (% inhibition); higher = more growth inhibition
[1] = tested on: T-47D; conditions: 72 h
In short: (§1)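 Drug sensitivity score, relative IC50 as the curve midpoint, and top-dose inhibition were derived from logistic dose–response fits in the Breeze pipeline. These fits used CellTiter-Glo viability, read on a PHERAstar and normalised to vehicle-only and positive controls. Breast cancer cell lines and resistant derivatives had been incubated for 72 h at 37 °C in 384-well plates holding library drugs at five concentrations spanning a 10 000-fold range. Resistant lines were grown in medium with 1 μM of the selecting drug.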

[2] = tested on: BT-474 Tam2; conditions: 4-OH-tamoxifen in medium 1 µM; 72 h
In short: as §1

[3] = tested on: T-47D Tam1; conditions: 4-OH-tamoxifen in medium 1 µM; 72 h
In short: as §1

[4] = tested on: BT-474; conditions: 72 h
In short: as §1

[5] = tested on: ZR-75-1 Tam1; conditions: 4-OH-tamoxifen in medium 1 µM; 72 h
In short: as §1

[6] = tested on: MCF-7; conditions: 72 h
In short: as §1

[7] = tested on: ZR-75-1 Tam2; conditions: 4-OH-tamoxifen in medium 1 µM; 72 h
In short: as §1

[8] = tested on: MCF-7 Tam1; conditions: 4-OH-tamoxifen in medium 1 µM; 72 h
In short: as §1

[9] = tested on: ZR-75-1; conditions: 72 h
In short: as §1

[10] = tested on: T-47D Tam2; conditions: 4-OH-tamoxifen in medium 1 µM; 72 h
In short: as §1

[11] = tested on: BT-474 Tam1; conditions: 4-OH-tamoxifen in medium 1 µM; 72 h
In short: as §1

| SMILES | viability inhibition at highest dose ([1]; 4-OH-tamoxifen in medium 0 µM) | viability inhibition at highest dose ([1]; 4-OH-tamoxifen in medium 1 µM) | viability inhibition at highest dose [2] | viability inhibition at highest dose [3] | viability inhibition at highest dose ([4]; 4-OH-tamoxifen in medium 0 µM) | viability inhibition at highest dose ([4]; 4-OH-tamoxifen in medium 1 µM) | viability inhibition at highest dose [5] | viability inhibition at highest dose ([6]; 4-OH-tamoxifen in medium 0 µM) | viability inhibition at highest dose ([6]; 4-OH-tamoxifen in medium 1 µM) | viability inhibition at highest dose [7] | viability inhibition at highest dose [8] | viability inhibition at highest dose ([9]; 4-OH-tamoxifen in medium 0 µM) | viability inhibition at highest dose ([9]; 4-OH-tamoxifen in medium 1 µM) | viability inhibition at highest dose [10] | viability inhibition at highest dose [11] |
| --- | --- | --- | --- | --- | --- | --- | --- | --- | --- | --- | --- | --- | --- | --- | --- |
| CO[C@H]1C[C@@H]2CC[C@@H](C)[C@@](O)(O2)C(=O)C(=O)N2CCCC[C@H]2C(=O)O[C@H]([C@H](C)C[C@@H]2CC[C@@H](OC(=O)C(C)(CO)CO)[C@H](OC)C2)CC(=O)[C@H](C)/C=C(\C)[C@@H](O)[C@@H](OC)C(=O)[C@H](C)C[C@H](C)/C=C/C=C/C=C/1C [Temsirolimus] (drug 100 nM) | 26.7 | 13.2 | 14.5 | 31.8 | 8.72 | 3.21 | 30.5 | 40.1 | 35.9 | 36.2 | 10.6 | 33.7 | 28.7 | 24 | 20.6 |
| COc1cc([C@@H]2c3cc4c(cc3[C@@H](O[C@@H]3O[C@@H]5CO[C@@H](c6cccs6)O[C@H]5[C@H](O)[C@H]3O)[C@H]3COC(=O)[C@H]23)OCO4)cc(OC)c1O [Teniposide] (drug 10000 nM) | 54.1 | 36.5 | 13.2 | 78.3 | 54.2 | 87.3 | 37 | 55.1 | 28 | 42.4 | 18 | 43.9 | 35.7 | 46.3 | 62.6 |
| O=C1CCC(N2C(=O)c3ccccc3C2=O)C(=O)N1 (stereo not given) [Thalidomide] (drug 10000 nM) | 0.793 | 10.3 | 1.4 | 0.973 | 2.41 | 13.6 | 6.53 | 1.74 | 5.08 | -1.28 | 4.57 | 5.91 | 12 | 4.15 | 2.81 |
| S=P(N1CC1)(N1CC1)N1CC1 [Thio-TEPA] (drug 100000 nM) | 2.16 | -2.96 | 9.92 | 3.55 | -3.59 | -5.3 | 11.1 | -13.2 | 9.81 | 4.16 | -0.761 | 4.61 | -3.56 | -1.13 | 11.3 |
| Nc1nc2[nH]cnc2c(=S)[nH]1 [Thioguanine] (drug 10000 nM) | 36.5 | 23.8 | 24 | 50.6 | 11.1 | 20.1 | 37.8 | 55.7 | 46.2 | 32.6 | 28.6 | 43.6 | 32.5 | 41.7 | 28.5 |
| Cn1cncc1[C@@](N)(c1ccc(Cl)cc1)c1ccc2c(c1)c(-c1cccc(Cl)c1)cc(=O)n2C [Tipifarnib  (Zarnestra)] (drug 10000 nM) | 28.4 | 14.2 | 78.5 | 55.8 | 42.6 | 77.3 | 57.6 | 64.4 | 77.7 | 57.7 | 42 | 51 | 50.5 | 44.6 | 85.4 |
| O=C1NC(=O)[C@@H](c2cn3c4c(cccc24)CCC3)[C@@H]1c1c[nH]c2ccccc12 [Tivatinib (ARQ 197)] (drug 1000 nM) | 43.2 | 7.95 | 10.4 | 26.7 | 34.3 | 43.9 | 5.46 | 27.5 | 18.4 | 8.59 | -6.15 | 19.6 | 10.3 | 27.8 | 16.1 |
| COc1cc2nccc(Oc3ccc(NC(=O)Nc4cc(C)on4)c(Cl)c3)c2cc1OC [Tivozanib  (AV-951)] (drug 10000 nM) | 22.3 | 19.7 | 43.4 | 23.7 | 31.9 | 75.6 | 3.78 | 24.5 | 23.7 | 11.2 | 13.2 | 13.6 | 4.79 | 22.1 | 71.8 |
| C[C@@H]1CCN(C(=O)CC#N)C[C@@H]1N(C)c1ncnc2[nH]ccc12 [Tofacitinib (Tasocitinib)] (drug 5000 nM) | 3.16 | -4.5 | -10.5 | -1.37 | 0.0745 | -12.8 | 4.16 | -15.3 | 12.9 | 10.5 | 1.13 | -2.74 | -1.91 | -13.3 | -11.1 |
| CC[C@@]1(O)C(=O)OCc2c1cc1n(c2=O)Cc2cc3c(CN(C)C)c(O)ccc3nc2-1 [Topotecan] (drug 1000 nM) | 52.2 | 5.37 | 0.0411 | 46 | -20.8 | -23.9 | 40.6 | 11 | 23.7 | 48.3 | -1.83 | 49.4 | 38.6 | 27.9 | 4.54 |
| CN(C)CCOc1ccc(/C(=C(/CCCl)c2ccccc2)c2ccccc2)cc1 [Toremifene (citrate)] (drug 10000 nM) | 9.04 | 1.56 | 99.1 | 45.2 | 25.6 | 82.9 | 18.3 | 19.2 | 69.3 | 25.1 | 35.5 | 3.59 | 24.4 | 62 | 95.2 |
| CC(C)C[C@@H](C(=O)N[C@H](C(=O)OC1CCCC1)c1ccccc1)[C@H](O)C(=O)NO [Tosedostat (CHR 2797)] (drug 10000 nM) | 33.3 | 15.7 | 28.5 | 46.1 | 19 | 54.7 | 30 | 40.5 | 38.1 | 37 | 14.2 | 22.3 | 28.8 | 48.2 | 34.7 |
| CC1=C(/C=C/C(C)=C/C=C/C(C)=C/C(=O)O)C(C)(C)CCC1 [Tretinoin] (drug 10000 nM) | 3.78 | 2.8 | 7.81 | 14.5 | -1.01 | -18.6 | 5.21 | -12.3 | 14.5 | 4.01 | 15.9 | 0.707 | -8.55 | 14.5 | -5.43 |
| C1CN1c1nc(N2CC2)nc(N2CC2)n1 [Triethylenemelamine] (drug 10000 nM) | -11.6 | -10.3 | -2.97 | 19.6 | -11.5 | -8.95 | -3.65 | 1.71 | -13.7 | -10 | -10.7 | -18.1 | -2.81 | 13 | 7.12 |
| O=C(CCCCCCC(=O)Nc1ccc([C@H]2O[C@@H](CSc3nc(-c4ccccc4)c(-c4ccccc4)o3)C[C@@H](c3ccc(CO)cc3)O2)cc1)NO [Tubacin] (drug 10000 nM) | 57.8 | 90.2 | 33.8 | 45.1 | 28.3 | 84.7 | 32.9 | 55.1 | 67.2 | 19.2 | 22.1 | 18.1 | 24.4 | 39.4 | 21.5 |
| CN1CCc2c(c3ccccc3n2Cc2ccc(C(=O)NO)cc2)C1 [Tubastatin A] (drug 10000 nM) | 2.46 | 1.6 | 12.3 | 0.672 | 8.77 | 28.9 | 16.1 | 10.2 | 17.2 | 12.3 | 2.15 | 17.4 | 18.8 | 11.4 | 36.4 |
| CN[C@@H]1C[C@H]2O[C@@](C)([C@@H]1OC)n1c3ccccc3c3c4c(c5c6ccccc6n2c5c31)C(=O)N[C@H]4O [UCN-01] (drug 10000 nM) | 67.6 | 69.8 | 96.9 | 78 | 74.7 | 90.7 | 66.1 | 90.3 | 97.1 | 73.2 | 96 | 61.4 | 61.5 | 70.5 | 96 |
| Oc1ncc(N(CCCl)CCCl)c(O)n1 [Uracil mustard] (drug 10000 nM) | -4.46 | -6.35 | 6.63 | -0.922 | -4.25 | -3.71 | 3.73 | -11.6 | 11.6 | 2.56 | -4.85 | 0.272 | -3.68 | 1.54 | 6.37 |
| CCCC(CCC)C(=O)O [Valproic acid] (drug 10000 nM) | -15.5 | 12.5 | -2.85 | 1.44 | -9.64 | -2.48 | 3.1 | -31.2 | -5.39 | -3.03 | 1.78 | -14.3 | 1.2 | 24.2 | 4.24 |
| CCCCC(=O)OCC(=O)[C@]1(O)Cc2c(O)c3c(c(O)c2[C@@H](O[C@H]2C[C@H](NC(=O)C(F)(F)F)[C@H](O)[C@H](C)O2)C1)C(=O)c1c(OC)cccc1C3=O [Valrubicin] (drug 10000 nM) | 58.2 | 68.2 | 59.5 | 67.9 | 42.6 | 77.1 | 70.3 | 55 | 77 | 85.4 | 30.4 | 59.8 | 58.9 | 63.2 | 75.8 |
| COc1cc2/c(=N/c3ccc(Br)cc3F)nc[nH]c2cc1OCC1CCN(C)CC1 [Vandetanib  (ZD6474, Zactima)] (drug 1000 nM) | -1.36 | -3.82 | 15 | 11.5 | 2.03 | 5.94 | 4.94 | 15.2 | 11.9 | 0.544 | -0.506 | -14.7 | -3 | 20.8 | 22 |
| CCc1c(C(=O)C(N)=O)c2c(OCC(=O)O)cccc2n1Cc1ccccc1 [Varespladib] (drug 10000 nM) | -1.77 | -10.9 | -5.77 | -7.33 | 0.192 | -17.3 | -2.44 | 13.3 | -9.89 | -6.3 | -3.81 | -0.701 | -2.07 | -7.24 | -12.8 |
| Clc1ccc(Nc2nnc(Cc3ccncc3)c3ccccc23)cc1 [Vatalanib] (drug 10000 nM) | -9.2 | -8.84 | 10.3 | 26.3 | -9.23 | 0.775 | -0.807 | -22.9 | 8.24 | 6.59 | -1.69 | -6.3 | -2.47 | 7.23 | 10.7 |
| C[C@]1(c2nc3c(C(N)=O)cccc3[nH]2)CCCN1 [Veliparib  (ABT-888)] (drug 10000 nM) | -14.2 | -15.3 | -7.23 | 2.73 | -7.48 | 9.81 | 2.16 | 8.41 | -2.66 | 6.18 | -2.94 | -8.51 | 2.27 | 6.94 | 6.83 |
| CCCS(=O)(=O)Nc1ccc(F)c(C(=O)c2c[nH]c3ncc(-c4ccc(Cl)cc4)cc23)c1F [Vemurafenib (PLX4032)] (drug 10000 nM) | -10.9 | 17.5 | -15 | -8.15 | -0.692 | 16.2 | 8.49 | 7.54 | -8.65 | 0.975 | 3.76 | -0.616 | 10.2 | 21.7 | -8.2 |
| CC[C@]1(O)C[C@@H]2CN(CCc3c([nH]c4ccccc34)[C@@](C(=O)OC)(c3cc4c(cc3OC)N(C)[C@H]3[C@@](O)(C(=O)OC)[C@H](OC(C)=O)[C@]5(CC)C=CCN6CC[C@]43[C@@H]65)C2)C1 [Vinblastine] (drug 1000 nM) | 14.7 | 22.2 | 91.8 | 55.2 | 43.3 | 87.4 | 30.2 | 51.4 | 57.6 | 35.9 | 19.6 | 24.6 | 34.4 | 57.8 | 88 |
